Measurements from US8859628B2, “Method for preventing, treating and diagnosing disorders of protein aggregation” (priority 2003, dated 2014).
“Also recorded” adds a separate entry of the source. Marks after values point to notes of the source that are not given here.

Columns and labels:
TgCRND8 mice [1] = test: Cerebral amyloid plaque burden (anti-Aβ immunostaining, image analysis); type: in vivo, mouse
Method: (§1) Cerebral amyloid burden—Brains were removed and one hemisphere was fixed in 4% paraformaldehyde and embedded in paraffin wax in the mid saggital plane. To generate sets of systematic uniform random sections, 5 μm serial sections were collected across the entire hemisphere. Sets of sections at […] intervals were used for analyses (10-14 sections/set). Plaque were identified after antigen retrieval with formic acid, and incubated with primary anti-Aβ antibody (Dako M-0872), followed by secondary antibody (Dako StreptABCcomplex/horseradish kit). End products were visualized with DAB counter-stained with hematoxylin. Amyloid plaque burden was assessed using Leco IA-3001 image analysis software interfaced with Leica microscope and Hitachi KP-M1U CCD video camera. Vascular burden was analyzed similarly and a dissector was used to measure the diameter of affected vessels.
as §1, with “camera.” for “camera. Vascular burden was analyzed similarly and a dissector was used to measure the diameter of affected vessels.”

TgCRND8 mice [2] = test: Morris Water Maze, spatial reference memory version, five-day trial paradigm (prevention study); type: in vivo, mouse; conditions: 6 months of age
Method: Age and sex-matched cohorts of TgCRND8 mice and non-transgenic littermates (n=35 in each cohort) were either untreated, or were given a compound of the present invention as indicated below at 30 mg/day/mouse beginning at age of about 6 weeks. The mice were followed for outcome measures cognitive function, brain Aβ levels, brain pathology, and survival at 4 months and 6 months of age.
Two cohorts entered the study at 6 weeks of age and outcomes were analyzed at 4- and 6-months of age. The body weight, coat characteristics and in cage behavior was monitored. All experiments were performed according to the Canadian Council on Animal Care guidelines.
Behavioral tests—After non-spatial pre-training, mice underwent place discrimination training for 5 days with 4 trials per day. Behavioral data was analyzed using a mixed model of factorial analysis of variance (ANOVA) with drug or genotype and training sessions as repeated measure factors.
The cognitive function of TgCRND8 mice was assessed using the spatial reference memory version of the Morris Water Maze using a five-day trial paradigm (FIGS. 1C-1H). […] The improved performance was also not due to nutritional or caloric effects because body weight, activity, and coat condition were not different between treated and untreated cohorts. […] Gender effects were not significant between any treatment group (p=0.85).

TgCRND8 mice [3] = test: Plasma Aβ levels; type: in vivo, mouse
Method: Plasma and Cerebral Aβ Content—Hemi-brain samples were homogenized in a buffered sucrose solution, followed by either 0.4% diethylamine/100 mM NaCl for soluble Aβ levels or cold formic acid for the isolation of total Aβ. After neutralization the samples were diluted and analyzed for Aβ40 and Aβ42 using commercially available kits (BIOSOURCE International). Each hemisphere was analyzed in triplicate with the mean±SEM reported. Western blot analyses were performed on all fractions using urea gels for Aβ species analyses. Aβ was detected using 6E10 (BIOSOURCE International) and Enhanced Chemiluminenscence (Amersham).
Plasma and Cerebral Aβ Content—Hemi-brain samples were homogenized in a buffered sucrose solution, followed by either 0.4% diethylamine/100 mM NaCl for soluble Aβ levels or cold formic acid for the isolation of total Aβ. After neutralization the samples were diluted and analyzed for Aβ40 and Aβ42 using commercially available kits (BIOSOURCE International). Each hemisphere was analyzed in triplicate with the mean±SEM reported.

TgCRND8 mice [4] = conditions: mouse, in vivo
Source text: Animals were sacrificed after one month of treatment and analysed for pathological outcomes.
(§2) In these experiments, the dosage and oral administration of compounds, and the behavioral and neurochemical assays were the same as those employed in the above treatment experiments.

wild type mice = test: Control experiment: survival and general condition of treated wild type mice; type: in vivo, mouse
TgPS1xAPP mice = test: Plaque burden in double transgenic PS1 x APP model (prophylactic trial); type: in vivo, mouse; conditions: 2 months of age
Source text: Tg PS1 x APP mice are an enhanced model of Alzheimer's disease which express a mutant human PS1 transgene encoding two familial mutations (M146L and L286V) in conjunction with the human APP transgene encoding the Indiana and Swedish familial mutations. These animals develop robust expression of cerebral Aβ levels and amyloid deposition by 30-45 days of age.

TgCRND8 mice [5] = test: Morris Water Maze, spatial reference memory version, three-day trial paradigm (treatment/reversal study); type: in vivo, mouse; conditions: three-day paradigm
Method: A cohort entered the study at 5 months of age and outcomes were analyzed at 6-months of age. The body weight, coat characteristics and in cage behavior was monitored. All experiments were performed according to the Canadian Council on Animal Care guidelines.
Behavioral Test—Reversal Study—Mice entered the Morris water maze test with a hidden platform on day one without pretraining. Mice were tested for 3 days with six trials per day. On the fourth day, the platform was removed from the pool and each mouse received one 30-s swim probe trial. On the last day the animals underwent a cue test in order to evaluate swimming ability, eye sight and general cognition. The cue test is composed at the platform being placed in a different quadrant than that used for testing and is tagged with a flag. Animals are allowed 60 s to find the platform. […] Behavioural data was analysed using a mixed model of factorial analysis of variance (ANOVA) with drug or genotype and training sessions as repeated measure factors.
The cognitive function of TgCRND8 mice was assessed using the spatial reference memory version of the Morris Water Maze using a three day trial paradigm (FIGS. 4-8).
Behavioural data was analysed using a mixed model of factorial analysis of variance (ANOVA) with drug and genotype as between subject variables and training sessions as within subject variable.
as §2

[6] = 1 month treatment from 5 months of age
[7] = 1 month treatment, 30 mg/mouse/day from 5 months, analyzed at 6 months of age
[8] = 4 month prevention, 30 mg/mouse/day from 6 weeks of age
[9] = 6 month prevention, 30 mg/mouse/day from 6 weeks of age

**Q.** Which results are given for `O[C@H]1[C@H](O)[C@@H](O)[C@H](O)[C@@H](O)[C@@H]1O` [Scyllo-Inositol, scyllo-inositol]?
**A.** plaque burden vs untreated (TgCRND8 mice [1]; [6]): significantly decreased the plaque burden and the Aβ load; Plaque Area (TgCRND8 mice [1]; [7]): 420027 ± 14986* μm^2; Plaque Count (TgCRND8 mice [1]; [7]): 1260 ± 27; Total Plaque Area/Total Brain Area (TgCRND8 mice [1]; [7]): 0.119 ± 0.010 %; Plaque Area (TgCRND8 mice [1]; [8]): 63847 ± 2895 μm^2; Plaque Count (TgCRND8 mice [1]; [8]): 598 ± 19; Total Plaque Area/Total Brain Area (TgCRND8 mice [1]; [8]): 0.015 ± 0.001 %; Plaque Area (TgCRND8 mice [1]; [9]): 262379 ± 5373† μm^2; Plaque Count (TgCRND8 mice [1]; [9]): 774 ± 10; Total Plaque Area/Total Brain Area (TgCRND8 mice [1]; [9]): 0.079 ± 0.013 %; amyloid/plaque burden vs untreated (words) (TgCRND8 mice [1]; 6 months of age, prevention): significantly decreased amyloid burden and gliosis; also recorded: decreases plaque deposition; mean plaque size (TgCRND8 mice [1]; prevention, 4 months of age): 103±4 μm^2; decrease in brain area covered with plaques (TgCRND8 mice [1]; prevention, 6 months of age): 35%; mean plaque size (TgCRND8 mice [1]; prevention, 6 months of age): 339±10 μm^2; reduction in plaque number (TgCRND8 mice [1]; prevention, 6 months of age): 20%; cognitive function, treated TgCRND8 mice vs non-Tg littermates (words) (TgCRND8 mice [2]): indistinguishable from non-Tg littermates on all days; also recorded: approached that of non-Tg littermates; cognitive function, treated vs untreated TgCRND8 mice (words) (TgCRND8 mice [2]): performed significantly better than untreated TgCRND8 mice; Plasma Aβ Levels (TgCRND8 mice [3]; 1 month treatment): 1980 ± 146 pg/mL; effect on plasma Aβ levels in comparison to untreated (words) (TgCRND8 mice [3]; [6]): Neither myo-inositol, epi-inositol nor scyllo-inositol treatment had any effect on plasma Aβ levels; Plasma Aβ Levels Aβ40 (TgCRND8 mice [3]; 2 month treatment): 4507 ± 207 pg/mL; Plasma Aβ Levels Aβ42 (TgCRND8 mice [3]; 2 month treatment): 3035 ± 236 pg/mL; Plasma Aβ Levels (TgCRND8 mice [3]; 4 month prevention): 952 ± 49 pg/mL; Plasma Aβ Levels (TgCRND8 mice [3]; 6 month prevention): 905 ± 55 pg/mL; effect on plasma Aβ levels in comparison to untreated (words) (TgCRND8 mice [3]; prevention, 4- and 6-months of age): Neither epi-inositol nor scyllo-inositol treatment had any effect on plasma Aβ levels; effects on blood chemistry or organ function (TgCRND8 mice [4]): do not exhibit obvious deleterious effects on blood chemistry or organ function; survival, weight, fur condition, cage behavior (wild type mice): had no effect either on survival or on other parameters such as weight, fur condition or cage behavior; amyloid/plaque burden vs untreated (words) (TgPS1xAPP mice; listed as Scyllo-inositol): significantly decreased amyloid burden; amyloid/plaque burden vs untreated (words) (TgPS1xAPP mice; listed as scyllo-inositol): significantly reduced; % brain area covered in plaques (TgPS1xAPP mice; treated from weaning): 0.065±0.016%; Plaque Count (TgPS1xAPP mice; treated from weaning): 1514±510; mean plaque size (TgPS1xAPP mice; treated from weaning): 149±5 μm^2; cognitive function, treated TgCRND8 mice vs non-Tg littermates (words) (TgCRND8 mice [5]; [6]): indistinguishable from non-Tg littermates on all days; also recorded: comparable to scyllo-inositol treated non-Tg littermates; cognitive function, treated TgCRND8 mice vs treated non-Tg littermates (TgCRND8 mice [5]; two months of treatment from 5 months of age): indistinguishable from scyllo-inositol treated non-Tg littermates; also recorded: remained indistinguishable from non-Tg littermates
